# Experimental data reported in US10494332B2, “Protein tyrosine phosphatases or SHP2 inhibitors and uses thereof” (Indiana University Research and Technology Corporation, priority 2015, dated 2019).
# “And” between values parts separate entries of the source, which are not always exact repeats. Identical values can stand only once. Like-named read-outs stand apart in the source and are kept apart here.
# How the values were obtained:
# STEP = molecular target: T1, STEP (Homo sapiens, UniProt P54829); test: PTP inhibition assay (pNPP); format: biochemical; settings: pNPP at Km, pH 7.0, 25° C.
# T1 sequence (P54829 1-565): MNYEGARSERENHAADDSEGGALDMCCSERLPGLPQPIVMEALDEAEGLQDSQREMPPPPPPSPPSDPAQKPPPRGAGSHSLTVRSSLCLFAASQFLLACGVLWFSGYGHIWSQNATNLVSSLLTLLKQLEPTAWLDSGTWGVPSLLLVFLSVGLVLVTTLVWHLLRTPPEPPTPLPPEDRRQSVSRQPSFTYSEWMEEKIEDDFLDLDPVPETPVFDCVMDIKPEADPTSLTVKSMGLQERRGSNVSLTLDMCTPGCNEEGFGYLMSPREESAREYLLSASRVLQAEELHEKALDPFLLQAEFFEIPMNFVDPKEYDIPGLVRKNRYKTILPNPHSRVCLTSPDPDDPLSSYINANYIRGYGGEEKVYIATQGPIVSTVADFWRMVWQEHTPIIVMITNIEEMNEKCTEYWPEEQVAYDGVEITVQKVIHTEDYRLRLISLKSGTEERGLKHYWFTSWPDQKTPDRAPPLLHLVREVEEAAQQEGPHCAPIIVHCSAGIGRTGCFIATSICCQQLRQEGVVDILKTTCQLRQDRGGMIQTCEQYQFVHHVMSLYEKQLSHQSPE
# PTPε = PTPε (Homo sapiens, UniProt P23469); test: PTP inhibition assay (pNPP); format: biochemical
# HePTP = molecular target: T2, HePTP (Homo sapiens, UniProt P35236); test: PTP inhibition assay (pNPP); format: biochemical; settings: pNPP at Km, pH 7.0, 25° C.
# T2 sequence (P35236 1-360): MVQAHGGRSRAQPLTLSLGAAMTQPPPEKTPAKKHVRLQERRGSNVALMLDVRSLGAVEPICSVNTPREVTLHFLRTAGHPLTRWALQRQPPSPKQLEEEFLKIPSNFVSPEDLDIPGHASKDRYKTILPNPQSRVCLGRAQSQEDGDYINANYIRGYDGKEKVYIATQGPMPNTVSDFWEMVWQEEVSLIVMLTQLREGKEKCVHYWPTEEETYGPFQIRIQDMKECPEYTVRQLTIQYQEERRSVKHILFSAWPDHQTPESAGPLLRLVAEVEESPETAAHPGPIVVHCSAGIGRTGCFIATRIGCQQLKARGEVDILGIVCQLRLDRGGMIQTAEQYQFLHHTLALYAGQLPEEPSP
# VHR = VHR (Homo sapiens, UniProt P51452); test: PTP inhibition assay (pNPP); format: biochemical; settings: pNPP at Km, pH 7.0, 25° C.
# PTPσ = PTPσ (Homo sapiens, UniProt Q13332); test: PTP inhibition assay (pNPP); format: biochemical
# Meg2 = molecular target: T3, Meg2 (Homo sapiens, UniProt P43378); test: PTP inhibition assay (pNPP); format: biochemical
# T3 sequence (P43378 1-593): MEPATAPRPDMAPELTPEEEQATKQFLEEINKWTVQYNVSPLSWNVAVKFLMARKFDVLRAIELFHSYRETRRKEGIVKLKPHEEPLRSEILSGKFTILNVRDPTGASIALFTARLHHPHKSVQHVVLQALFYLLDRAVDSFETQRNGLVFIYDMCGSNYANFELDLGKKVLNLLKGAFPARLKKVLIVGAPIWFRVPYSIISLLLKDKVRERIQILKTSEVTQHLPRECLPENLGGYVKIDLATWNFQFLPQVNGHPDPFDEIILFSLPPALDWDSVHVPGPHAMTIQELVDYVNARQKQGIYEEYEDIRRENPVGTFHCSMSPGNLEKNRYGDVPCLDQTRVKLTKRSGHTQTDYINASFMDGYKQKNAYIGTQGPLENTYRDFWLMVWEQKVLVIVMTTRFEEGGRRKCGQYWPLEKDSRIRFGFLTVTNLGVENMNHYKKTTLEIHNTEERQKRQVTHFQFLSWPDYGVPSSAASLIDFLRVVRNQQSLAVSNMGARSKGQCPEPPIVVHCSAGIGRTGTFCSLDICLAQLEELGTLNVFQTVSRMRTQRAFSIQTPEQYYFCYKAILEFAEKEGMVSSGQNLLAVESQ
# CDC14A = molecular target: T4, CDC14A (Homo sapiens, UniProt Q9UNH5); test: PTP inhibition assay (pNPP); format: biochemical
# T4 sequence (Q9UNH5 1-594): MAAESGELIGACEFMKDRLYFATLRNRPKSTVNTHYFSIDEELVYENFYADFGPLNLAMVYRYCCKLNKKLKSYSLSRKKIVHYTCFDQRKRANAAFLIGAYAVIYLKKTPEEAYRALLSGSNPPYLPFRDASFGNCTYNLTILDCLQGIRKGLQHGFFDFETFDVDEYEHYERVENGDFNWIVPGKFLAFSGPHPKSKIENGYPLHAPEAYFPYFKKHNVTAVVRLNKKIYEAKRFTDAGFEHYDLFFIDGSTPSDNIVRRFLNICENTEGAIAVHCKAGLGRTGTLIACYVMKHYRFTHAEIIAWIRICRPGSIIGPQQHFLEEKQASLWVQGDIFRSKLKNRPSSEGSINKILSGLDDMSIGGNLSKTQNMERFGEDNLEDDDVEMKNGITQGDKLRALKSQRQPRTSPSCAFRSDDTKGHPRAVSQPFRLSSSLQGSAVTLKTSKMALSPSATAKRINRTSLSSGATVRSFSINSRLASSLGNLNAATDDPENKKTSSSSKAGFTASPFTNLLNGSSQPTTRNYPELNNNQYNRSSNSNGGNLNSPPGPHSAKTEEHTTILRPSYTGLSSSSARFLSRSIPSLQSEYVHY
# YopH = YopH (Yersinia enterocolitica, UniProt P15273); test: biochemical
# mPTPB = molecular target: T5, mPTPB (Mycobacterium tuberculosis, UniProt I6WXK4); test: biochemical
# T5 sequence (I6WXK4 1-276): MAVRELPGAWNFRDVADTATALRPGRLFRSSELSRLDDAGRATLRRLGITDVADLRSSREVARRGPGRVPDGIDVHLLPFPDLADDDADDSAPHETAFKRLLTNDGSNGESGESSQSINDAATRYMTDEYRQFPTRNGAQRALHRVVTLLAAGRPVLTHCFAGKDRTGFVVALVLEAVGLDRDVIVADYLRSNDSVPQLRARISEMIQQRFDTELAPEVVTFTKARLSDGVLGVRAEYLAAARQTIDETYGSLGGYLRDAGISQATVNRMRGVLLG
# TbPTP1 = TbPTP1 (Trypanosoma brucei brucei, UniProt Q38AT7); test: PTP inhibition assay (pNPP); format: biochemical; settings: pNPP at Km, pH 7.0, 25° C.; read-out: IC50 TbPTP1
# [1] = Biochemical potency against target (Ic50, nM) mPTPB
# Chain of YopH (P15273 whole entry, looked up): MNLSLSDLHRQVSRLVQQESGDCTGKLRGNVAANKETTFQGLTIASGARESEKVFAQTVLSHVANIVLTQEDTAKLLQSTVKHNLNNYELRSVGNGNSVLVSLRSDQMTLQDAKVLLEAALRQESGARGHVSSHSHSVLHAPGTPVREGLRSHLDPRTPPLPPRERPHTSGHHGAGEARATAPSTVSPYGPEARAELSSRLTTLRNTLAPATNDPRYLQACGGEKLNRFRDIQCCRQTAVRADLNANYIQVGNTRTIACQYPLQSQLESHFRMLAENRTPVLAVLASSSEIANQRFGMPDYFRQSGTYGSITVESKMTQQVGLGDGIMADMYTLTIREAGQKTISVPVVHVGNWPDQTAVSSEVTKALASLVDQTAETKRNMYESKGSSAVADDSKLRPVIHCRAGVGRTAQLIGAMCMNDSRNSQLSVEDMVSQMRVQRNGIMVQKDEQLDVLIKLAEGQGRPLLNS
# Chain of VHR (P51452 whole entry): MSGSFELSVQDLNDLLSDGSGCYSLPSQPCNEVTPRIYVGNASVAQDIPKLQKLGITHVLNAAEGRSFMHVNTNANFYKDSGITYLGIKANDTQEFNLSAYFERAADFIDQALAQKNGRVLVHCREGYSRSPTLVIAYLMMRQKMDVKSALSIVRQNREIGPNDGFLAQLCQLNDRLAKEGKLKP
# Chain of PTPε (P23469 20-700): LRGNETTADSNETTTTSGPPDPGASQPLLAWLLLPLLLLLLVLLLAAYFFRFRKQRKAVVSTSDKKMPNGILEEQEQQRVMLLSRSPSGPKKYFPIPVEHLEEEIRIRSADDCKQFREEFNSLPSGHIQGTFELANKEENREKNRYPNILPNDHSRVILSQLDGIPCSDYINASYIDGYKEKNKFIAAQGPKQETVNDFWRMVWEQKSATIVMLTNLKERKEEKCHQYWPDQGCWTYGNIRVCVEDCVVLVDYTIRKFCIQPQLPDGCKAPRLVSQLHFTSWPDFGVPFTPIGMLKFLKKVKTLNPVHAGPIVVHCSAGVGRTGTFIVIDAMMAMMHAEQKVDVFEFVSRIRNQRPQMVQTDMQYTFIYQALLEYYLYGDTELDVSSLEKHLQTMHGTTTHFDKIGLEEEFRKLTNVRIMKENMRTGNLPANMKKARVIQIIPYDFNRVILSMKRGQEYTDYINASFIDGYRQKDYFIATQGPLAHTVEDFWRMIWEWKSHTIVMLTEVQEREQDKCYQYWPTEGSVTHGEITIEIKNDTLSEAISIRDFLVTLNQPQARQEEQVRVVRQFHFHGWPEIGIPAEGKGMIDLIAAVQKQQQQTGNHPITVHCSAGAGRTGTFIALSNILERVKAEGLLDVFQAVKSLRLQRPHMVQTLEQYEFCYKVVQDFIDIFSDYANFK
# Chain of PTPσ (Q13332 30-1948): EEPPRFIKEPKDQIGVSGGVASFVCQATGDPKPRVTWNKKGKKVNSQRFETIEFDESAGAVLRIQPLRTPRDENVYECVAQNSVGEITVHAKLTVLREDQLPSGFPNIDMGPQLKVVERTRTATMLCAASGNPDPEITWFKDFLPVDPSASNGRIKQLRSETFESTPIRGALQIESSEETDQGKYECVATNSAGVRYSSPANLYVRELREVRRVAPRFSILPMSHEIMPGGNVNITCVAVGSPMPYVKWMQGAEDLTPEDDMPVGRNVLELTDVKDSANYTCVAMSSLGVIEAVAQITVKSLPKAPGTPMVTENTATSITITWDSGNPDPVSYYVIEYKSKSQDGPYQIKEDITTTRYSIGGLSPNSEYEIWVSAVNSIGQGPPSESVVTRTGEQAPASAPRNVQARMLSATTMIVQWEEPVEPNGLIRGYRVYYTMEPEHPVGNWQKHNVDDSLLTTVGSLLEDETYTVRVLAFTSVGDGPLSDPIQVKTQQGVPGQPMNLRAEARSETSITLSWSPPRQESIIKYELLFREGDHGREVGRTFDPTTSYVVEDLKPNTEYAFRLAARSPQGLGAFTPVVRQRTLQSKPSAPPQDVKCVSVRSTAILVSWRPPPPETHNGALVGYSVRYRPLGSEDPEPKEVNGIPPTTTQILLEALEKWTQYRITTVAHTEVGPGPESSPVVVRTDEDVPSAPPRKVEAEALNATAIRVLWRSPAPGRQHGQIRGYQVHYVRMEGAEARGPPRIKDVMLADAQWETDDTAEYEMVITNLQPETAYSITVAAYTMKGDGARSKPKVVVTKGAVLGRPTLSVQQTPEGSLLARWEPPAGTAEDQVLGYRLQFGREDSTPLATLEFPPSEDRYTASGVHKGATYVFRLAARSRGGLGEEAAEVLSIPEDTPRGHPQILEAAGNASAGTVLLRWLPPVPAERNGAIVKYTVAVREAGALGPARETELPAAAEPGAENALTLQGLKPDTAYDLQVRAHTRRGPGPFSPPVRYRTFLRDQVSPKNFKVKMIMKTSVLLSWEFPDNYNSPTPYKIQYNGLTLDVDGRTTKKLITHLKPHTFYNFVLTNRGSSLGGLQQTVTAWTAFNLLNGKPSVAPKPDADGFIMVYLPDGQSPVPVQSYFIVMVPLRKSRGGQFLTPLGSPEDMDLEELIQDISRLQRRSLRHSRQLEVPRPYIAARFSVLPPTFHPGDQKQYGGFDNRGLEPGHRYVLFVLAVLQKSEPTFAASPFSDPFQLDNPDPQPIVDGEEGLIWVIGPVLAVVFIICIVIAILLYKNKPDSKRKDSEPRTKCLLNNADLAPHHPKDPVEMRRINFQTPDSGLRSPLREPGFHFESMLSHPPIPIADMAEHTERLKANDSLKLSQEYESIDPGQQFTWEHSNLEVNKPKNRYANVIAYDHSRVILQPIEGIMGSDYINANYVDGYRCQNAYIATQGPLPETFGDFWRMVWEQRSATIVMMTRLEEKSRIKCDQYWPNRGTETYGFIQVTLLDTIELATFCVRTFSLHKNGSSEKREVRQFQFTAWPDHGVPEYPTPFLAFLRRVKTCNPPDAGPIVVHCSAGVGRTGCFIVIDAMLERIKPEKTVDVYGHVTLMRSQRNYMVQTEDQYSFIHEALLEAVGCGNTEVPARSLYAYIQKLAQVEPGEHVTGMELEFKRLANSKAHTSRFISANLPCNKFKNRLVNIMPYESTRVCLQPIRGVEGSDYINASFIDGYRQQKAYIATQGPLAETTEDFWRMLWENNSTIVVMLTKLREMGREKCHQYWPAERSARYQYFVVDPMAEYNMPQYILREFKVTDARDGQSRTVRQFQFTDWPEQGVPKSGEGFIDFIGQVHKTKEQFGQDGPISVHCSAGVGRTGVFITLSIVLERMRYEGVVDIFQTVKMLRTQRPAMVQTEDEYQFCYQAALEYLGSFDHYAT
# Chain of TbPTP1 (Q38AT7 entry or part of it): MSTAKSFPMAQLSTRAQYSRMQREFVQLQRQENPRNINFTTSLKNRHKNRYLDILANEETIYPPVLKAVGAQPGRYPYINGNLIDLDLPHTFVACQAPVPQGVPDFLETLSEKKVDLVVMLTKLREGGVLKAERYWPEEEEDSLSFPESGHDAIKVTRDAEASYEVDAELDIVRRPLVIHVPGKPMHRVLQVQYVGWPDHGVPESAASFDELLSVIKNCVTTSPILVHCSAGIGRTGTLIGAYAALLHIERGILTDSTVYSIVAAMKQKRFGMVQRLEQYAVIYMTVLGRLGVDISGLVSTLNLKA
Compound,IC50 (STEP; read-out: IC50 STEP),IC50 (PTPε),IC50 (HePTP),IC50 (VHR),IC50 (PTPσ; read-out: IC50 PTPσ),IC50 (Meg2),IC50 (CDC14A),IC50 (YopH),IC50 (mPTPB; IC50 mPTPB),IC50 (TbPTP1),IC50 (PTPσ),IC50 (STEP; IC50 STEP),IC50 (mPTPB; [1])
O=C(Nc1cccc(OCc2ccccc2)c1)C(c1ccccc1)S(=O)(=O)O (stereo not drawn) [Compound L319M52],> 200 µM,> 200 µM,130 µM and > 100 µM,> 200 µM,> 200 µM,> 200 µM,> 200 µM,> 200 µM,106 nM,118 µM and > 100 µM,,,
O=C(Nc1ccc2nc(C(F)(F)F)[nH]c2c1)C(c1ccccc1)S(=O)(=O)O (stereo not drawn) [Compound L319M54],> 200 µM,> 200 µM,> 200 µM,> 200 µM,,> 200 µM,> 200 µM,> 200 µM,78 nM,> 200 µM,> 200 µM,,
O=C(Nc1ccc(N2CCOCC2)cc1)C(c1ccccc1)S(=O)(=O)O (stereo not drawn) [Compound L319M68],> 200 µM,> 200 µM,> 200 µM,> 200 µM,,> 200 µM,> 200 µM,> 200 µM,5000 nM,> 200 µM,> 200 µM,,
O=C(Nc1cnc2ccccc2c1)C(c1ccccc1)S(=O)(=O)O (stereo not drawn) [Compound L319M88],> 200 µM,> 200 µM,> 200 µM,> 200 µM,,> 200 µM,> 200 µM,> 200 µM,282 nM,> 200 µM,> 200 µM,,
O=C(Nc1ccc(-c2ccccc2)cc1)C(c1ccccc1)S(=O)(=O)O (stereo not drawn) [Compound L319N08],,,78 µM,> 200 µM,,,,,,> 100 µM,,> 100 µM,
O=C(Nc1nc2ccccc2s1)C(c1ccccc1)S(=O)(=O)O (stereo not drawn) [Compound L319N15],> 200 µM,> 200 µM,50 µM,> 200 µM,,> 200 µM,> 200 µM,> 200 µM,116 nM,> 200 µM,> 200 µM,,
O=C(C(c1ccccc1)S(=O)(=O)O)N1CCC(Cc2ccccc2)CC1 (stereo not drawn) [Compound L319N46],> 200 µM,> 200 µM,> 200 µM,> 200 µM,> 200 µM,> 200 µM,> 200 µM,> 200 µM,,> 200 µM,,,60 nM
O=C(C(c1ccccc1)S(=O)(=O)O)N1CCC(c2ccc(Cl)c(Cl)c2)CC1 (stereo not drawn) [Compound L319N47],> 200 µM,> 200 µM,77 µM,99 µM,> 200 µM,147 µM,> 200 µM,160 µM,,38 µM,,,9 nM
O=C(C(c1ccccc1)S(=O)(=O)O)N1CCCC2CCCCC21 (stereo not drawn) [Compound L319N53],> 200 µM,> 200 µM,> 200 µM,> 200 µM,> 200 µM,> 200 µM,> 200 µM,> 200 µM,,> 200 µM,,,20 nM
O=C(CS(=O)(=O)O)Nc1nc2ccc([N+](=O)[O-])cc2s1 [Compound L335N15-07],> 100 µM,> 100 µM,> 100 µM,> 100 µM,> 100 µM,> 100 µM,> 100 µM,> 100 µM,,> 100 µM,,,
